Measurements published in patent US20230092890A1, “1, 3, 4-Oxadiazole derivative compounds as histone deacetylase 6 inhibitor, and the pharmaceutical composition comprising the same” (Chong Kun Dang Pharmaceutical Corp., priority 2019, published 2023).

Legend:
[1] = biological target: T1, HDAC1 (Homo sapiens, UniProt Q13547); experiment: HDAC enzyme activity inhibition (in vitro), HDAC1 Fluorimetric Drug Discovery Assay Kit; format: biochemical; details: samples at 100, 1000 and 10000 nM; 37° C. 60 minutes; fluorescence Ex 390, Em 460; read-out: HDAC1 IC50
T1 construct: purchased Enzolifesciences BML-AK511
T1 sequence (Q13547 whole entry): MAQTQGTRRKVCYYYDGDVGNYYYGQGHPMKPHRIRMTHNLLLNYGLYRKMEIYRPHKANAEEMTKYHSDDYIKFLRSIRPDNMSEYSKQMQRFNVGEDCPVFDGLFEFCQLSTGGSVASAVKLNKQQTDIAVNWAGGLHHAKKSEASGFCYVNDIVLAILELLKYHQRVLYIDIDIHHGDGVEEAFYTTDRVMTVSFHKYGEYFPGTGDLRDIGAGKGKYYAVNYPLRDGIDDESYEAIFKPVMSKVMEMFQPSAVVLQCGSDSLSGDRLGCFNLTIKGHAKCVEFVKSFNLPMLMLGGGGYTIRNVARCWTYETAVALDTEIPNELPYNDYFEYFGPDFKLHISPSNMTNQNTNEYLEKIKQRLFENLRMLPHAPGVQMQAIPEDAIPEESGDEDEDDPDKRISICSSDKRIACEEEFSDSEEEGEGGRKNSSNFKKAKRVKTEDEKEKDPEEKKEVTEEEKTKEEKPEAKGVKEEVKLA
In short: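 Compounds at 100, 1000, 10000 nM (HDAC1) or 0.1, 1, 10, 100, 1000 nM (HDAC6); 37° C, 60 min; developer, 37° C, 30 min; fluorescence Ex 390/Em 460.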

[2] = biological target: T2, HDAC6 human recombinant (Homo sapiens, UniProt Q9UBN7); experiment: HDAC enzyme activity inhibition (in vitro), HDAC6 assay; format: biochemical; details: samples at 0.1, 1, 10, 100 and 1000 nM; 37° C. 60 minutes; fluorescence Ex 390, Em 460; read-out: HDAC6 IC50
T2 construct: purchased Calbiochem 382180
T2 sequence (Q9UBN7 1-1215): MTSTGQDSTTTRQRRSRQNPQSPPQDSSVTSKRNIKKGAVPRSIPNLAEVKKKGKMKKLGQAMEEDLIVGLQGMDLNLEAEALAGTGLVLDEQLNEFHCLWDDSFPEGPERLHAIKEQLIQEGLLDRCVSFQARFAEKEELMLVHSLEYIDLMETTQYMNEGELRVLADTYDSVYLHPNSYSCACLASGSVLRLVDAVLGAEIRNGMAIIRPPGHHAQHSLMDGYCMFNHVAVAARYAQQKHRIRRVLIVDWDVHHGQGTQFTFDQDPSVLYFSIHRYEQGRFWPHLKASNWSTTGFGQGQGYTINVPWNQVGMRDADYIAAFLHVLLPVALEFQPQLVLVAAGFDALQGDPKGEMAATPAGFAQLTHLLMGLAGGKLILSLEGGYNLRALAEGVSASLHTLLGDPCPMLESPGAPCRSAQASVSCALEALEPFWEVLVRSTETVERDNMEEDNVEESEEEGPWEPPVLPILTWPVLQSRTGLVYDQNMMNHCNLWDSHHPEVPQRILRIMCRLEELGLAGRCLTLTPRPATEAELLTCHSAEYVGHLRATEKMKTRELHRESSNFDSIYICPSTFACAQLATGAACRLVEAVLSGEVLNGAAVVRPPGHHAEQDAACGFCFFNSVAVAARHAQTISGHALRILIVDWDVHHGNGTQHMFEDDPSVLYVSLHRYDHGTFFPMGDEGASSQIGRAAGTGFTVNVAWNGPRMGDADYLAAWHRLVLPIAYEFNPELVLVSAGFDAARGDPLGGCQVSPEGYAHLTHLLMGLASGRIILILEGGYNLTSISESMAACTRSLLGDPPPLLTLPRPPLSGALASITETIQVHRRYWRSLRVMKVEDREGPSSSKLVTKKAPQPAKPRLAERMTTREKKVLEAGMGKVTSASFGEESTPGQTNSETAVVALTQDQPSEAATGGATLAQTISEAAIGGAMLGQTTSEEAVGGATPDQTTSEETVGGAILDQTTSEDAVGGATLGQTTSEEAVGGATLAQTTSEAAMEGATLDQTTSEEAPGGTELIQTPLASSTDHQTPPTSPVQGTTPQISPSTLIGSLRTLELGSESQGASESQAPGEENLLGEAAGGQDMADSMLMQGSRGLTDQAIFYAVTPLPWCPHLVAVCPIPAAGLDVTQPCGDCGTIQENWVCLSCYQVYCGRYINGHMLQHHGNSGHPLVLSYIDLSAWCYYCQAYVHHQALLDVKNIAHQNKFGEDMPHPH
In short: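 HDAC6 human recombinant enzyme with fluorimetric substrate; […]. Reaction 60 min at 37° C, then developer 30 min at 37° C; fluorescence read at Ex 390/Em 460.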

SMILES	IC50 [1] [µM]	IC50 [2] [µM]
CS(=O)(=O)N1CCC(n2c(=O)n(Cc3ccc(-c4nnc(C(F)F)o4)cc3)c3cc(F)c(F)cc32)CC1 [Compound 194, 1-(4-(5-(difluoromethyl)-1,3,4-oxadiazole-2-yl)benzyl)-5,6-difluoro-3-(1-(methylsulfonyl)piperidine-4-yl)-1,3-dihydro-2H-benzo[d]imidazole-2-one]	> 10	0.084
CC(=O)N1CCC(c2ccc3c(c2)n(C2CCN(C)CC2)c(=O)n3Cc2ccc(-c3nnc(C(F)F)o3)cn2)CC1 [Compound 197, 5-(1-acetylpiperidine-4-yl)-1-((5-(5-(difluoromethyl)-1,3,4-oxadiazole-2-yl)pyridine-2-yl)methyl)-3-(1-methylpiperidine-4-yl)-1,3-dihydro-2H-benzo[d]imidazole-2-one]	> 10	0.235
CN1CCC(c2ccc3c(c2)n(C2CCN(C)CC2)c(=O)n3Cc2ccc(-c3nnc(C(F)F)o3)cn2)CC1 [Compound 199, 1-((5-(5-(difluoromethyl)-1,3,4-oxadiazole-2-yl)pyridine-2-yl)methyl)-3,5-bis(1-methylpiperidine-4-yl)-1,3-dihydro-2H-benzo[d]imidazole-2-one]	> 10	0.175
CS(=O)(=O)N1CCC(n2c(=O)n(Cc3ccc(-c4nnc(C(F)F)o4)cc3F)c3ccc(Cl)cc32)CC1 [Compound 201, 5-chloro-1-(4-(5-(difluoromethyl)-1,3,4-oxadiazole-2-yl)-2-fluorobenzyl)-3-(1-(methylsulfonyl)piperidine-4-yl)-1,3-dihydro-2H-benzo[d]imidazole-2-one]	> 10	0.07
CS(=O)(=O)N1CCC(n2c(=O)n(Cc3ccc(-c4nnc(C(F)F)o4)cc3)c3ccc(Cl)cc32)CC1 [Compound 202, 5-chloro-1-(4-(5-(difluoromethyl)-1,3,4-oxadiazole-2-yl)benzyl)-3-(1-(methylsulfonyl)piperidine-4-yl)-1,3-dihydro-2H-benzo[d]imidazole-2-one]	> 10	0.139
CS(=O)(=O)N1CCC(n2c(=O)n(Cc3ccc(-c4nnc(C(F)F)o4)cc3F)c3ncccc32)CC1 [Compound 204, 3-(4-(5-(difluoromethyl)-1,3,4-oxadiazole-2-yl)-2-fluorobenzyl)-1-(1-(methylsulfonyl)piperidine-4-yl)-1,3-dihydro-2H-imidazo[4,5-b]pyridine-2-one]	> 10	0.14
CS(=O)(=O)N1CCC(n2c(=O)n(Cc3ccc(-c4nnc(C(F)F)o4)cc3)c3ncccc32)CC1 [Compound 205, 3-(4-(5-(difluoromethyl)-1,3,4-oxadiazole-2-yl)benzyl)-1-(1-(methylsulfonyl)piperidine-4-yl)-1,3-dihydro-2H-imidazo[4,5-b]pyridine-2-one]	> 10	0.739
CC(C)(C)C(=O)Nc1ccc2c(c1)n(Cc1ccccc1)c(=O)n2Cc1ccc(-c2nnc(C(F)F)o2)cn1 [Compound 207, N-(3-benzyl-1-((5-(5-(difluoromethyl)-1,3,4-oxadiazole-2-yl)pyridine-2-yl)methyl)-2-oxo-2,3-dihydro-1H-benzo[d]imidazole-5-yl)pivalamide]	> 10	0.173
Cn1c(=O)n(Cc2ccc(-c3nnc(C(F)F)o3)cn2)c2ccc(-c3cccnc3)cc21 [Compound 208, 1-((5-(5-(difluoromethyl)-1,3,4-oxadiazole-2-yl)pyridine-2-yl)methyl)-3-methyl-5-(pyridine-3-yl)-1,3-dihydro-2H-benzo[d]imidazole-2-one]	> 10	0.013
Cn1c(=O)n(Cc2ccc(-c3nnc(C(F)F)o3)cn2)c2ccc(-c3ccncc3)cc21 [Compound 209, 1-((5-(5-(difluoromethyl)-1,3,4-oxadiazole-2-yl)pyridine-2-yl)methyl)-3-methyl-5-(pyridine-4-yl)-1,3-dihydro-2H-benzo[d]imidazole-2-one]	> 10	0.017
Cc1noc(C)c1-c1ccc2c(c1)n(C1CCN(C)CC1)c(=O)n2Cc1ccc(-c2nnc(C(F)F)o2)cn1 [Compound 210, 1-((5-(5-(difluoromethyl)-1,3,4-oxadiazole-2-yl)pyridine-2-yl)methyl)-5-(3,5-dimethylisoxazole-4-yl)-3-(1-methylpiperidine-4-yl)-1,3-dihydro-2H-benzo[d]imidazole-2-one]	> 10	0.038

Now from value to compound:

IC50 [1] [µM]	IC50 [2] [µM]	SMILES
> 10	0.048	CS(=O)(=O)N1CCC(n2c(=O)n(Cc3ccc(-c4nnc(C(F)F)o4)cn3)c3cc(F)c(F)cc32)CC1 [Compound 193, 1-((5-(5-(difluoromethyl)-1,3,4-oxadiazole-2-yl)pyridine-2-yl)methyl)-5,6-difluoro-3-(1-(methylsulfonyl)piperidine-4-yl)-1,3-dihydro-2H-benzo[d]imidazole-2-one]
> 10	0.05	CS(=O)(=O)N1CCC(n2c(=O)n(Cc3ccc(-c4nnc(C(F)F)o4)cn3)c3cc(C(F)(F)F)ccc32)CC1 [Compound 195, 3-((5-(5-(difluoromethyl)-1,3,4-oxadiazole-2-yl)pyridine-2-yl)methyl)-1-(1-(methylsulfonyl)piperidine-4-yl)-5-(trifluoromethyl)-1,3-dihydro-2H-benzo[d]imidazole-2-one]
> 10	0.126	CS(=O)(=O)N1CCC(n2c(=O)n(Cc3ccc(-c4nnc(C(F)F)o4)cc3F)c3cc(C(F)(F)F)ccc32)CC1 [Compound 196, 3-(4-(5-(difluoromethyl)-1,3,4-oxadiazole-2-yl)-2-fluorobenzyl)-1-(1-(methylsulfonyl)piperidine-4-yl)-5-(trifluoromethyl)-1,3-dihydro-2H-benzo[d]imidazole-2-one]
> 10	0.195	CN1CCC(n2c(=O)n(Cc3ccc(-c4nnc(C(F)F)o4)cn3)c3ccc(C4CCN(S(C)(=O)=O)CC4)cc32)CC1 [Compound 198, 1-((5-(5-(difluoromethyl)-1,3,4-oxadiazole-2-yl)pyridine-2-yl)methyl)-3-(1-methylpiperidine-4-yl)-5-(1-(methylsulfonyl)piperidine-4-yl)-1,3-dihydro-2H-benzo[d]imidazole-2-one]
> 10	0.04	CS(=O)(=O)N1CCC(n2c(=O)n(Cc3ccc(-c4nnc(C(F)F)o4)cn3)c3ccc(Cl)cc32)CC1 [Compound 200, 5-chloro-1-((5-(5-(difluoromethyl)-1,3,4-oxadiazole-2-yl)pyridine-2-yl)methyl)-3-(1-(methylsulfonyl)piperidine-4-yl)-1,3-dihydro-2H-benzo[d]imidazole-2-one]
> 10	0.105	CS(=O)(=O)N1CCC(n2c(=O)n(Cc3ccc(-c4nnc(C(F)F)o4)cn3)c3ncccc32)CC1 [Compound 203, 3-((5-(5-(difluoromethyl)-1,3,4-oxadiazole-2-yl)pyridine-2-yl)methyl)-1-(1-(methylsulfonyl)piperidine-4-yl)-1,3-dihydro-2H-imidazo[4,5-b]pyridine-2-one]
> 10	0.058	CS(=O)(=O)N1CCC(n2c(=O)n(Cc3ccc(-c4nnc(C(F)F)o4)cn3)c3ccccc32)CC1 [Compound 206, 1-((5-(5-(difluoromethyl)-1,3,4-oxadiazole-2-yl)pyridine-2-yl)methyl)-3-(1-(methylsulfonyl)piperidine-4-yl)-1,3-dihydro-2H-benzo[d]imidazole-2-one]
